Test results reported in US7071341B2, “α-Glucosidase inhibitors and their synthesis from a natural source” (Council of Scientific and Industrial Research, priority 2003, dated 2006).
“Also recorded” adds a separate entry of the source.

Assays:
yeast α-glucosidase = experiment: α-glucosidase inhibitory assay by the chromogenic method; assay type: biochemical; conditions: for IC50: yeast α-glucosidase [Sigma], substrate p-nitrophenyl-α-D-glucopyranoside, pH 7.00, absorbance at 405 nm; for α-glucosidase inhibitory potency compared with the standard drug 1-deoxy nojirimycin: comparison in words
Description: The α-glucosidase inhibitory assay was done by the chromogenic method. In brief 10 μl of test compounds dissolved in DMSO (5 mg/ml and subsequent dilutions) were incubated for 5 min. with 50 μl of yeast α-glucosidase [Sigma] enzyme prepared in 100 mM phosphate buffer (pH 7.00). After 5 minutes of incubation, 50 μl of 5 mM substrate (p-nitrophenyl-α-D-glucopyranoside [Sigma] prepared in the same buffer) was added. The pre-substrate and 5-min post-substrate addition absorbances were recorded at 405 nm spectrophotometrically. The increase in absorbance from pre-substrates addition to post substrates reaction were obtained.

Compound	IC50 (yeast α-glucosidase)	melting point	also measured
CCCCCC(=O)OC1Cc2ccc(O)c(O)c2OC1c1ccc(O)c(O)c1 (single isomer, unassigned; (-)) [Compound 4c, (−)-3-O-hexanoyl mesquitol]	49.3 µM	81 °C	–
CCCCCCCCCC(=O)O[C@H]1Cc2ccc(O)c(O)c2O[C@@H]1c1ccc(O)c(O)c1 [Compound 4d, (−)-3-O-Decanoyl mesquitol]	13.5 µM	–	α-glucosidase inhibitory potency compared with the standard drug 1-deoxy nojirimycin (yeast α-glucosidase; listed as decanoyl ester of (−) mesquitol): more potent α-glucosidase inhibitors than the standard drug 1-deoxy nojirimycin; also recorded: more potent than the standard α-glucosidase inhibitor 1-deoxy nojirimycin
COc1ccc(C(=O)OC2Cc3ccc(O)c(O)c3OC2c2ccc(O)c(O)c2)cc1 (single isomer, unassigned; (-)) [Compound 4j, (−)-3-O-(p-methoxybenzoyl) mesquitol]	67.3 µM	254 °C	–
O=C(OC1Cc2ccc(O)c(O)c2OC1c1ccc(O)c(O)c1)c1ccccc1Cl (single isomer, unassigned; (-)) [Compound 4I, (−)-3-O-(o-chlorobenzoyl) mesquitol]	43.3 µM	252 °C	–
O=C(O[C@H]1Cc2ccc(O)c(O)c2O[C@@H]1c1ccc(O)c(O)c1)c1ccc(F)cc1 [Compound 4k, (−)-3-O-(p-flourobenzoyl) mesquitol]	32.8 µM	–	α-glucosidase inhibitory potency compared with the standard drug 1-deoxy nojirimycin (yeast α-glucosidase; listed as p-flourobenzyl ester of (−) mesquitol): more potent α-glucosidase inhibitor than the standard drug 1-deoxy nojirimycin
O=C(OC1Cc2ccc(O)c(O)c2OC1c1ccc(O)c(O)c1)c1ccccc1 (single isomer, unassigned; (-)) [Compound 4h, (−)-3-O-benzoyl mesquitol]	77.8 µM	248 °C	α-glucosidase inhibitory potency compared with the standard drug 1-deoxy nojirimycin (yeast α-glucosidase; listed as benzoyl ester of (−) mesquitol): more potent α-glucosidase inhibitor than the standard drug 1-deoxy nojirimycin
CCCC(=O)OC1Cc2ccc(O)c(O)c2OC1c1ccc(O)c(O)c1 (single isomer, unassigned; (-)) [Compound 4b, (−)-3-O-butyryl mesquitol]	46.2 µM	80 °C	–
Oc1ccc(C2Oc3c(ccc(O)c3O)CC2O)cc1O (single isomer, unassigned; (-)) [Compound 1, (−)-mesquitol]	82.3 µM	252 °C	α-glucosidase inhibitory activity, in words (yeast α-glucosidase): potent α-glucosidase inhibitory activity
CC(=O)OC1Cc2ccc(O)c(O)c2OC1c1ccc(O)c(O)c1 (single isomer, unassigned; (-)) [Compound 4a, (−)-3-O-acetyl mesquitol]	46.3 µM	78 °C	–
CCCCCCCCCCCCCCCC(=O)OC1Cc2ccc(O)c(O)c2OC1c1ccc(O)c(O)c1 (single isomer, unassigned; (-)) [Compound 4f, (−)-3-O-Palmitoyl mesquitol]	9.56 µM	87 °C	α-glucosidase inhibitory potency compared with the standard drug 1-deoxy nojirimycin (yeast α-glucosidase; listed as palmitoyl ester of (−) mesquitol): more potent α-glucosidase inhibitors than the standard drug 1-deoxy nojirimycin; also recorded: more potent than the standard α-glucosidase inhibitor 1-deoxy nojirimycin
CCCCCCCCCCCCCCCCCC(=O)OC1Cc2ccc(O)c(O)c2OC1c1ccc(O)c(O)c1 (single isomer, unassigned; (-)) [Compound 4g, (−)-3-O-Steroyl mesquitol]	54.5 µM	90 °C	–
CCCCCCCCCCCCCC(=O)OC1Cc2ccc(O)c(O)c2OC1c1ccc(O)c(O)c1 (single isomer, unassigned; (-)) [Compound 4e, (−)-3-O-myristoyl mesquitol]	12.6 µM	83 °C	α-glucosidase inhibitory potency compared with the standard drug 1-deoxy nojirimycin (yeast α-glucosidase; listed as myristoyl ester of (−) mesquitol): more potent α-glucosidase inhibitors than the standard drug 1-deoxy nojirimycin; also recorded: more potent than the standard α-glucosidase inhibitor 1-deoxy nojirimycin
